Residue numbers refer to the chain shown, from its start. One block for each molecule: values may come before it.
Legend:
[1] = target: T1, COMT (Homo sapiens, UniProt P21964); assay: Assay of COMT activity, purified recombinant His-COMT, methylation of catechol estrogens; format: biochemical; settings: for Km: formation of the named product from its catechol estrogen, recombinant His-COMT, 200 μM SAM, 10 min at 37° C.; for kcat: formation of the named product, in min-1 (unit assumed); for Hill Coefficient: sigmoidal fit; for formation of product by COMT: methylation of 4-OHE2 and 4-OHE1; for pattern of rates of methylation: substrate 2-100 μM
T1 construct: made in house; host or cells: Escherichia coli DH5αF′Iq
T1 sequence (P21964 51-271): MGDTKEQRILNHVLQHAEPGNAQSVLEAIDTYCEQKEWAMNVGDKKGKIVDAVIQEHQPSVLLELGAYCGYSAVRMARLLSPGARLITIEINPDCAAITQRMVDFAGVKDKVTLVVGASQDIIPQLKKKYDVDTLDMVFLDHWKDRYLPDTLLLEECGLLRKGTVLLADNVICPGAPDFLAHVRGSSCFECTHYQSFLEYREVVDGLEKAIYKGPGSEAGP
Description: Assay of COMT Activity. Purified recombinant His-COMT (300 pmol) was reconstituted 0.5 ml of 100 mM KPO4, pH 7.4, containing 5 mM MgCl2, 10 mM β-mercaptoethanol, and 200 μM SAM. Reactions were initiated by adding varying concentrations of each individual catechol estrogen (2, 3, 6, 9, 12, 15, 20, 40, 60, 80, and 100 μM). Blanks contained all compounds except SAM. Reactions proceeded for 10 min at 37° C. with gentle shaking and then were terminated by addition of 2 ml CH2Cl2. To determine COMT activity in breast cancer cells, ZR-75 and MCF-7 cells were harvested at confluency and homogenized in 100 mM KPO4, pH 7.4, 5 mM MgCl2, 10 mM β-mercaptoethanol. Following ultracentrifugation of the cell homogenate (110,000 g, 30 min, 4° C.), the supernatant cytosol was divided into aliquots for ICELISA, protein determination (BCA assay; Pierce, Rockford, Ill.), and COMT assay. The latter was carried out in the presence of 200 μM SAM and 100 μM catechol estrogen for 20 min at 37° C. and then terminated by addition of CH2Cl2. The concentration of endogenous catechol and methoxy estrogens was below the limit of detection by gas chromatography/mass spectrometry.
Extraction and Gas Chromatography/Mass Spectrometry Analysis of Catechol Estrogens. A deuterated internal standard (100 μl of 8 mg/liter E2-d4 in methanol) was added and all estrogens extracted into the CH2Cl2 by vortex mixing for 30 s. 1.5 ml of the CH2Cl2 fraction was evaporated to dryness under air and volatile TMS derivatives prepared by heating the residue with 100 μl of 50% NO-bis(trimethylsilyl)trifluoroacetamide/1% trimethyl chlorosilane in acetonitrile at 56° C. for 30 min. The TMS derivatives of the estrogen metabolites were separated by gas chromatography (H-P 5890, Hewlett-Packard, Wilmington, Del.) on a 5% phenyl methyl silicone stationary phase fused silica capillary column (30 m×0.2 mm×0.5 μm film, HP5; Hewlett-Packard). Helium carrier gas was used at a flow of 1 ml/min. The injector was operated at 250° C., with 2 μl injected in the splitless mode, with a purge (60 ml/min helium) time of 0.6 min. The oven temperature was held at 180° C. for 0.5 min, then raised at 6° C./min to 250° C. where it was held for 17 min, then raised to 300° C. at 8° C./min to give a total run time of 35.42 min. This program permitted adequate separation of a wide range of estrogen metabolites. Retention times (in min) for the TMS derivatives were E1 20.13, E2 and E2-d4 21.89, 4-MeOE1 23.52, 2-MeO-3-MeOE1 (underivatized) 23.75, 2-OH-3-MeOE1 24.87, 2-MeOE1 25.2, 4-MeOE2 25.78, 2-OHE1 and 2-MeO-3-MeOE2 26.19, 2-OH-3-MeOE2 26.9, 2-MeOE2 27.18, 4-OHE1 27.27, 6α-OHE2 27.29, 2-OHE2 27.44, 4-OHE2 28.06, E3 28.38. The EI mass spectrometer (H-P 5970) was operated in the selected ion monitoring mode from 18 to 30 min. Ions monitored were TMS-E1 342, 257, 343; TMS2-E2-d4 420, 421, 287; TMS2-E2 416, 417, 285; TMS-4-MeOE1, TMS-2-OH-3-MeOE1, TMS-2-MeOE1 and TMS-3-MeO-4-OHE1 372, 373, 342; 2-MeO-3-MeOE1 314, 315, 229; TMS2-4-MeOE2, TMS2-2-OH-3-MeOE2, TMS2-2-MeOE2 and TMS2-3-MeO-4-OHE2 446, 447, 315; TMS2-2-OHE1 430, 431, 432; TMS-2-MeO-3-MeOE2 388, 389, 257; TMS2-4-OHE1 430, 431, 345; TMS2-6α-OHE2 414, 283, 309; TMS3-2-OHE2 and TMS3-4-OHE2 504, 505, 373; TMS3-E3 504, 505, 311 (FIG. 7). The instrument was calibrated by simultaneous preparation of an 11-point calibration over the range 0-22 nmol/tube of each compound. Sensitivity was determined to be between 0.02 and 0.04 nmol/tube (400-800 fmol on column) for the various compounds. […] Absolute extraction efficiency for E2, 2-OH-E2 and 4-OH-E2 at 3.5 nmol/tube was 119, 96, and 107% assessed by comparison to injections of spiked solvent samples onto the gas chromatograph. Internal standard added prior to extraction compensated for deviation from 100% recovery for all investigated compounds.
Statistical Analysis. […]

[2] = tested on: Syrian hamster; settings: in vivo; cited from earlier work
[3] = tested on: renal DNA; settings: in vivo; cited from earlier work
[4] = tested on: DNA; settings: cited from earlier work
[5] = tested on: CYP1B1; assay: Assay of CYP1B1 E2 hydroxylation activity; format: biochemical, human; settings: for 2-OH-Estradiol kcat: E2 2-hydroxylation; for 4-OH-Estradiol kcat: E2 4-hydroxylation; for 16a-OH-Esrradiol kcat: E2 16α-hydroxylation
Description: Assay of CYP1B1 E2 Hydroxylation Activity. Purified CYP1B1 (200 pmol) was reconstituted with a 2-fold molar amount of recombinant rat NADPH-P450 reductase (400 pmol), purified as previously described, and 60 μg of L-α-dilauroyl-sn-glycero-3-phosphocholine in the presence of sodium cholate (0.005%, w/v) in 0.4 ml of 100 mM potassium phosphate buffer, pH 7.4, containing varying concentrations of E2 (2, 3, 6, 9, 12, 15, 20, 40, 60, 80, and 100 μM) and 1 mM ascorbate. An NADPH-generating system consisting of 5 mM glucose 6-phosphate and 0.5 U of glucose-6-phosphate dehydrogenase/ml was added and reactions initiated by adding NADP+ to a final concentration of 0.5 mM. Reactions proceeded for 10 min at 37° C. with gentle shaking and then were terminated by addition of 2 ml CH2Cl2.
Extraction and Gas Chromatography/Mass Spectrometry Analysis of E2 and Metabolites. A deuterated internal standard (100 μl of 8 mg/liter E2-2, 4, 16, 16-d4 in methanol; CDN Isotopes, Pointe-Claire, Quebec) was added and all steroids extracted into CH2Cl2 by vortex mixing for 30 s. 1.5 ml of the CH2Cl2 fraction was evaporated to dryness under air and volatile TMS derivatives prepared by heating the residue with 100 μl of 50% NO-bis(trimethylsilyl)trifluoroacetamide/1% trimethyl chlorosilane in acetonitrile at 56° C. for 30 min. The TMS derivatives of E2 and its metabolites were separated by gas chromatography (H-P 5890, Hewlett-Packard, Wilmington, Del.) on a 5% phenyl methyl silicone stationary phase fused silica capillary column (30 m×0.2 mm×0.5 μm film, HP5; Hewlett-Packard). Helium carrier gas was used at a flow of 1 ml/min. The injector was operated at 250° C., with 2 μl injected in the splitless mode, with a purge (60 ml/min helium) time of 0.6 min. The oven temperature was held at 189° C. for 0.5 min, then raised at 6° C./min to 250° C. where it was held for 17 min, then raised to 300° C. at 8° C./min to give a total run time of 35.42 min. […] The EI mass spectrometer (H-P 5970) was operated in the selected ion monitoring mode from 18 to 34 min. Ions monitored were TMS2-E2-d4 420, 288, 330; TMS2-E2 416, 285, 326; TMS3-2-OH-E2 504, 373; TMS3-4-OH-E2 504, 373, 325; TMS3-16α-OH-E2 345, 311, 504. The instrument was calibrated by simultaneous preparation of an 11-point calibration over the range […]/tube of each compound. […] Internal standard added prior to extraction compensated for deviation from 100% recovery.
Statistical Analysis. Kinetic parameters (Km and kcat) were determined by nonlinear regression analysis using the computer program GraphPad PRISM (San Diego, Calif.).

Molecule: COc1cc2c(cc1O)[C@H]1CC[C@]3(C)C(=O)CC[C@H]3[C@@H]1CC2 [2-OH-3-MeOE1]
Km [1]: 73 ± 16 µM | kcat [1]: 2.8 ± 0.4

Molecule: C[C@]12CC[C@@H]3c4cc(O)c(O)cc4CC[C@H]3[C@@H]1CCC2=O [2-OHE1]
pattern of rates of methylation [1]: typical hyperbolic patterns

Molecule: COc1cc2c(cc1O)CC[C@@H]1[C@@H]2CC[C@]2(C)[C@@H](O)CC[C@@H]12 [2-MeOE2]
Km [1]: 108 ± 9 µM | kcat [1]: 6.8 ± 0.4

Molecule: C[C@]12CC[C@@H]3c4ccc(O)c(O)c4CC[C@H]3[C@@H]1CC[C@@H]2O [4-OHE2]
pattern of rates of methylation [1]: sigmoid curve pattern | DNA single-strand breaks [4]: induced DNA single-strand breaks | induction of renal cancer [2]: induced renal cancer | levels of the oxidized base 8-hydroxy-deoxyguanosine [3]: significantly increased

Molecule: COc1cc2c(cc1O)[C@H]1CC[C@]3(C)[C@@H](O)CC[C@H]3[C@@H]1CC2 [2-OH-3-MeOE2]
Km [1]: 51 ± 5 µM | kcat [1]: 1.5 ± 0.1

Molecule: COc1cc2c(cc1O)CC[C@@H]1[C@@H]2CC[C@]2(C)C(=O)CC[C@@H]12 [2-MeOE1]
Km [1]: 74 ± 8 µM | kcat [1]: 3.3 ± 0.2

Molecule: C[C@]12CC[C@@H]3c4cc(O)c(O)cc4CC[C@H]3[C@@H]1CC[C@@H]2O [2-OHE2]
pattern of rates of methylation [1]: typical hyperbolic patterns | DNA single-strand breaks [4]: negligible effect | levels of the oxidized base 8-hydroxy-deoxyguanosine [3]: did not cause oxidative DNA damage

B1: Variant 4: recombinant CYP1B1 with 48Arg, 119Ala, 432Val, 453Ser (protein, UniProt Q16678 1-543, looked up, variant N453S)
Cytochrome P450 1B1: MGTSLSPNDPWPLNPLSIQQTTLLLLLSVLATVHVGQRLLRQRRRQLRSAPPGPFAWPLIGNAAAVGQAAHLSFARLARRYGDVFQIRLGSCPIVVLNGERAIHQALVQQGSAFADRPAFASFRVVSGGRSMAFGHYSEHWKVQRRAAHSMMRNFFTRQPRSRQVLEGHVLSEARELVALLVRGSADGAFLDPRPLTVVAVANVMSAVCFGCRYSHDDPEFRELLSHNEEFGRTVGAGSLVDVMPWLQYFPNPVRTVFREFEQLNRNFSNFILDKFLRHCESLRPGAAPRDMMDAFILSAEKKAAGDSHGGGARLDLENVPATITDIFGASQDTLSTALQWLLLLFTRYPDVQTRVQAELDQVVGRDRLPCMGDQPNLPYVLAFLYEAMRFSSFVPVTIPHATTANTSVLGYHIPKDTVVFVNQWSVNHDPLKWPNPENFDPARFLDKDGLISKDLTSRVMIFSVGKRRCIGEELSKMQLFLFISILAHQCDFRANPNEPAKMNFSYGLTIKPKSFKVNVTLRESMELLDSAVQNLQAKETCQ
2-OH-Estradiol kcat [5]: 0.0467 ± 0.0033 s⁻¹ | 4-OH-Estradiol kcat [5]: 0.075 ± 0.005 s⁻¹ | 16a-OH-Esrradiol kcat [5]: 0.0065 ± 0.00033 s⁻¹

B2: Variant 2: recombinant CYP1B1 with 48Arg, 119Ser, 432Val, 453Asn (protein, UniProt Q16678 1-543, looked up, variant A119S)
Cytochrome P450 1B1: B1 Cytochrome P450 1B1 with A119S, S453N
2-OH-Estradiol kcat [5]: 0.0383 ± 0.0017 s⁻¹ | 4-OH-Estradiol kcat [5]: 0.0633 ± 0.0017 s⁻¹ | 16a-OH-Esrradiol kcat [5]: 0.00567 ± 0.00033 s⁻¹

B3: Variant 1: recombinant CYP1B1 with 48Gly, 119Ala, 432Val, 453Asn (protein, UniProt Q16678 1-543, looked up, variant R48G)
Cytochrome P450 1B1: B1 Cytochrome P450 1B1 with R48G, S453N
2-OH-Estradiol kcat [5]: 0.0533 ± 0.0033 s⁻¹ | 4-OH-Estradiol kcat [5]: 0.1 ± 0.0033 s⁻¹ | 16a-OH-Esrradiol kcat [5]: 0.00933 ± 0.00067 s⁻¹

The next lines start with results.

Km [1]: 53 ± 6 µM | kcat [1]: 6.7 ± 0.4 | Hill Coefficient [1]: 2.0 ± 0.4
Molecule: COc1c(O)ccc2c1CC[C@@H]1[C@@H]2CC[C@]2(C)C(=O)CC[C@@H]12 [4-MeOE1]

formation of product by COMT [1]: not observed
Molecule: COc1ccc2c(c1O)CC[C@@H]1[C@@H]2CC[C@]2(C)[C@@H](O)CC[C@@H]12 [3-MeO-4-OHE2]

pattern of rates of methylation [1]: sigmoid curve pattern
Molecule: C[C@]12CC[C@@H]3c4ccc(O)c(O)c4CC[C@H]3[C@@H]1CCC2=O [4-OHE1]
induction of renal cancer [2]: induced renal cancer | levels of the oxidized base 8-hydroxy-deoxyguanosine [3]: significantly increased

formation of product by COMT [1]: not observed
Molecule: COc1ccc2c(c1O)CC[C@@H]1[C@@H]2CC[C@]2(C)C(=O)CC[C@@H]12 [3-MeO-4-OHE1]

Km [1]: 24 ± 3 µM | kcat [1]: 3.4 ± 0.2 | Hill Coefficient [1]: 1.6 ± 0.2
Molecule: COc1c(O)ccc2c1CC[C@@H]1[C@@H]2CC[C@]2(C)[C@@H](O)CC[C@@H]12 [4-MeOE2]

Source: US20080076129A1, “Method of Detecting an Increased Susceptibility to Breast Cancer” (priority 2000, published 2008)
